Assay results: patent US20080219998A1, “Anti-Thrombotic Agents” (priority 2001, published 2008)
No end group written: not given here.

System: intrinsic pathway
Experiment: activated partial thromboplastin time (APTT) screening coagulation assay
Format: biochemical
Settings: phage expressing the peptide tested; APTT is a standard screening marker of the activity of the intrinsic pathway
Description: While in vitro or animal testing are not acceptable tools for establishing the safety thus usefulness of drugs, such as anticoagulants, screening compounds for specificity towards factor XI, thus potential utility in the clinic, is an necessary intermediate step in practicing this invention. In such an effort, several FXI-specific peptides have been created using standard phage display technology. […] One example of such a phage is given here. Amino acid sequencing of the peptide expressed by this phage yields Gln-Lys-Met-Gln-His-Gly-Ile-Trp-Asn-Arg-Thr-Ala using standard technology. The phage expressing the peptide is then tested in screening coagulation assays, such as activated partial thromboplastin time (APTT) and prothrombin time (PT). […] This peptide, and other inhibitory compounds with FXI specificity, such as Gln-Gln-Val-Ala-Asn-Trp-Ser-Met-Ser-Pro-Ala, are considered only as examples of intermediate steps in identifying and preparing compounds of this invention that can exclusively reduce FXI activity. Other methods of screening exist.

How did the “prolongation of APTT” value turn out when “QKMQHGIWNRTA [FXI-specific peptide from phage display, tested as the phage expressing it]” was run?
The value was “significant prolongation”.
